Data published in patent publication US20240390404A1, “ANTI-HUMAN NOROVIRUS AGENT” (KEIO UNIVERSITY, priority 2018, published 2024).
Entries after “also recorded” stand apart in the source; their conditions may differ.

Columns and labels:
[1] = system: 2D organoid derived from intestinal stem cells; assay: Cytotoxicity of 2fp-fucose to 2D organoid (Trypan blue staining); type: cell-based; settings: 2fp-fucose 3.0 to 1,000 μM, 7 continuous days, versus no treatment (0 μM)
From the text: The 2D organoid derived from intestinal stem cells refers to a 2D organoid for infection and culture of human diarrhea virus (including norovirus) disclosed in Patent Document 2. According to Patent Document 2, the 2D organoid is “obtained by Step 1 in which human intestinal epithelial stem cells, human intestinal epithelial cells, or a tissue including at least one of these cells is subjected to 3-dimensional culturing on the extracellular matrix, to thereby obtain a 3D organoid; and by Step 2 in which the above-obtained 3D organoid is dispersed to prepare single cells; the single cells are subjected to monolayer culturing on an extracellular matrix; and there is obtained a 2D organoid having a single-layer structure of the epithelial cells for forming the human intestinal cavity which include differentiated trophoblastic cells and caliciform cells.” By virtue of the 2D organoid, culturing human norovirus, which was not previously achieved, can be successfully performed.
The aforementioned 3D organoid is degraded by use of, for example, TrypLE™ Express (product of Thermo Fisher SCIENTIFIC), to thereby yield single cells. […]
The 2D organoid was treated with 2fp-fucose (3.0 to 1,000 μM) for 7 continuous days. In each case, the number of dead cells was determined through Trypan blue staining. […]

[2] = system: fucose-modified proteins including HBGA on the surface of 2D organoid; assay: HBGA / fucose-modified protein expression on the surface of 2D organoid (binding of FITC-labeled UEA-1); type: cell-based, human; settings: 2fp-fucose 0, 8, 40, 200, 1,000 μM, 4 continuous days
Protocol: The 2D organoid was subjected to a 2fp-fucose treatment (0, 8, 40, 200, and 1,000 μM) for 4 continuous days. Reduction of fucose-modified proteins including HBGA formed on the cell surfaces was investigated by checking binding of FITC (phosphor)-labeled UEA-1 (ulex europaeus agglutinin-1).

[3] = system: VLP of norovirus GII. 4; assay: Binding of AF488-labeled VLPs of norovirus GII.4 to the surface of 2fp-fucose-treated 2D organoid; type: cell-based, human norovirus; settings: 2fp-fucose 0, 8, 40, 200, 1,000 μM, 4 treatment days
Protocol: In the Example, a nucleotide sequence (AB447456) encoding a structural protein domain of norovirus GII. 4 was incorporated into a baculovirus, and the sequence was expressed in insect cells (SF9 cells). The expression product was used in the Example.
Separately, VLPs of norovirus GII. 4 were labeled with AF488 (Alexa Fluor 488; green phosphor) and purified. The thus-prepared labeled VLPs were added to the 2fp-fucose-treated 2D organoid, and a state of binding of VLPs to the surface of the 2fp-fucose-treated 2D organoid was observed. Similar to the case of UEA-1, the 2fp-fucose concentration in the treatment was 0, 8, 40, 200, and 1,00 0 μM (for 4 treatment days). […] When the 2fp-fucose concentration exceeded 40 μM, definite reduction in VLP adsorption on the surface of 2D organoid was observed (FIG. 3(b)). FIG. 3(b) includes monochrome photographic images.

[4] = system: human norovirus GII. 6 (K2017 strain); assay: Human norovirus proliferation inhibition in 2D organoid after 2fp-fucose treatment, GII.6 strain; type: cell-based; settings: 3 days treatment before infection, days 3 and 6 after infection
Protocol: Feces of a human norovirus-infected patent contains a large amount of infectious human norovirus. Thus, the feces of a human norovirus-infected patient is suspended in distilled water or the like to a final concentration of about 10%, to thereby prepare a “10% feces suspension.” The 10% feces suspension is about 10-fold diluted with an ENRA medium. The diluted suspension is added to each of the aforementioned wells having the 2D organoid (5 μL/well) and subjected to incubation for about 3 hours, to thereby proliferate human norovirus. As a result of verification, it has been confirmed that human norovirus proliferates to about 100,000 times the initial count through the culture system employing the 2D organoid.
In the Example, there were tested strains of human norovirus obtained from feces of human norovirus infection patients through the aforementioned procedure and stocked before the test. Specifically, three strains belonging to the genetic group 2 (GII) which accounts for 80 to 90% of the infected patients were selected as test targets. The isolated strain lineages included in GII (FIG. 1) were GII. 6 belonging to “Lineage 1,” GII. […]
The effect of 2fp-fucose treatment on proliferation of human norovirus was investigated for each lineage of norovirus. […] 4, and the viral proliferation amount was determined on days 3 and 6 after infection (FIG. 4).

SMILES: CC(=O)OC1O[C@@H](C)[C@@H](OC(C)=O)[C@@H](OC(C)=O)[C@@H]1F (stereo partly drawn) [2fp-fucose, (3S,4R,5R,6S)-3-fluoro-6-methyltetrahydro-2H-pyran-2,4,5-triyl triacetate]
- cell viability (number of dead cells, Trypan blue staining) [1]: no significant difference was observed in cell viability; also recorded: no effect on cell viability was confirmed
- amount of α-link fucose including HBGA on the surface of the 2D organoid (UEA-1 binding) [2]: decrease in a concentration-dependent manner
- VLP binding amount on the surface of 2D organoid [3]: decrease in a concentration-dependent manner
- concentration of complete viral proliferation inhibition [4]: ≥ 200 µM
